In data set [1] the test system is S. mansoni. The data set is described as follows: Couples of S. mansoni recovered from infected BALB/c mice by perfusion after treatment. In kind it is in vivo, Schistosoma mansoni. As to conditions: for number of S. mansoni recovered / couples of S. mansoni recovered in the treated group / efficacy: BALB/c mice; for number of S. mansoni recovered / efficacy: single dose 10 mg/kg after 40 days of infection; for couples of S. mansoni recovered in the treated group: single dose 10 mg/kg after 40 days of infection (approx. 200 cercariae), untreated group 40 couples/animal; for reduction of the viable worms: 10 mg/kg of weight, after 40 days of infection with S. mansoni. As for the experimental part: FIG. 8—graph with the number of recovered worms vs. effect of the drug. Couples of S. mansoni recovered from BALB/c mice by perfusion of the door-kidney system. Five mice, after 40 days of infection (approximately 200 cercariae), were submitted to test with a single dose of the drug dinitrocubebine (10 mg/kg of weight). In the group untreated (negative control treated only with a 5% dimethyl sulfoxide solution in water), 40 couples/animal were recovered. In the treated group, only 5 couples were recovered. […] FIG. 9—graph with the number of recovered worms vs. effect of the drug. Couples of S. mansoni recovered from BALB/c mice by perfusion of the door-kidney system. Five mice, after 40 days of infection (approximately 200 cercariae), were submitted to test with a single dose of the drug methylcubebin (10 mg/kg of weight). In the untreated group (negative control treated only with a 5% dimethyl sulfoxide solution in water), 40 couples/animal were recovered. In the treated group, only five couples were recovered. […] In in vivo tests, the drugs (−)—O-methylcubebin (6) and (−)-6,6′-dinitronokinin (8) presented results similar to the obtained with praziquantel, in the same concentration (10 mg/kg of weight), i.e. reduction of approximately 90% of the viable worms, after 40 days of infection with S. mansoni. […] Such a result was extremely important and promising, since the drug was given to the parasites when they were still maturing and had not yet reached the evolutive form of adult worms. […] Thus, the developed medicine may be used not only as a healing drug, but also as a prophylactic drug in the combat against schistosomosis. Another advantage relates to the low toxicity of these substances for use in antiparasitic therapeutics, since many of these derivatives have hepatic-protecting and antioxidant action. Thus, the use of these lignans certainly offers higher safety for therapeutic use than praziquantel. So, the use of these substances in medicines for longer treatments is safer than with praziquantel and they have nearly no significant side effects. Finally, this group of substances is obtained from natural sources, which is not applicable to praziquantel.

Data set [2] relates to Schistosoma. Nature of the data set: Schistosomicidal activity (test not specified).
In data set [3] the test system is Schistosoma mansoni (evolutive stage of adult worm). Nature of the data set: In vitro culture of Schistosoma mansoni adult worm couples (motility, separation, egglaying, tegument, death). The format is cell-based. The settings on record: for time to considerable increase in the motility of parasite couples / time to separation of parasite couples: 14.0 and 7.0 μg/ml; for change in tegument or death of parasites: worms analyzed for 5 days. As for the experimental part: FIG. 1—effect of the drugs (−)-hinokinin (3) and (−)-O—(N,N-dimethylamino-ethyl) cubebin (4), in concentrations of 14, 7.5 and 3.5 μg/ml, under the parasite Schistosoma mansoni's egglaying during 5 days of culture.
FIG. 2—effect of the drug (−)-6,6-dinitroinokinin (8), in concentrations of 14, 7.5 and 3.5 μg/ml, under the parasite Schistosoma mansoni's egglaying during 5 days of culture.
FIG. 3—effect of the drug (−)—O-methylcubebin (5), in concentrations of 14, 7.5 and 3.5 μg/ml, under the parasite Schistosoma mansoni's egglaying during 5 days of culture
FIG. 4—parasite Schistosoma mansoni (evolutive stage of adult worm) cultivated in vitro in RPMI 1640 medium, in 5% CO2 atmosphere at 37° C. for 24 hours, in the absence and presence of the drug (−)-6,6-dinitroinokinin (8). A and C, male and female parasites, respectively, cultivated in the absence of substances. B and D, male and female parasite, respectively, cultivated in the presence of the Drug (the same effect was noticed in concentrations of 14.0, 7.0 and 3.0 μg/ml) Inverted light microscope, 4× magnification.
Two hours after the addition of substances 3 and 5 in concentrations of 14.0 and 7.0 μg/ml, considerable increase in the motility of parasite couples was noticed, ending up with their separation after 18 hours.

For data set [4] the test system is unchanged. The data set is described as above. In kind it is cell-based. The settings on record: 14.0, 7.0 and 3.5 μg/ml.
The test system of data set [5] is S. mansoni. The data set is described as follows: Couples of S. mansoni recovered from infected BALB/c mice by perfusion after treatment. In kind it is in vivo, Schistosoma mansoni. As to conditions: after 7 and 21 days of infection.
The subject of data set [6] is Schistosoma. The settings on record: cited from earlier work.
Setting [7] is: 3.5 μg/ml, after 24 hours of culture.

“Also recorded” adds a separate entry of the source. Read-outs that look alike come from different tables or passages of the source.

For `O=[N+]([O-])c1cc2c(cc1CC1COC(O)C1Cc1cc3c(cc1[N+](=O)[O-])OCO3)OCO2` (single isomer, unassigned; (-)) [8a, (−)-6,6′-dinitrocubebin], in the data set on S. mansoni [1], the “number of S. mansoni recovered” value is given as “about 10%” and the “couples of S. mansoni recovered in the treated group” value was 5 couples. The schistosomicidal activity entry with Schistosoma [2] is on record as “significant schistosomicidal activity”.

Consider `CC(=O)OC1OC[C@H](Cc2ccc3c(c2)OCO3)[C@H]1Cc1ccc2c(c1)OCO2` (single isomer, unassigned; (-)) [compound 4, (−)-O-acetylcubebin], for which the schistosomicidal activity result with Schistosoma [2] is recorded as “significant schistosomicidal activity”.

Take `CN(C)CCOC1OCC(Cc2ccc3c(c2)OCO3)C1Cc1ccc2c(c1)OCO2` (single isomer, unassigned; (-)) [compound 5, (−)-O—(N,N-dimethylaminoethyl)-cubebin]: in data set [3] (3.5 μg/ml), the “time to increase in the motility of couples” value is 24 h and the “time to separation of the couples” value worked out at 36 h. Moreover, the effect on egglaying result in data set [3] (setting [7]) is on record as “considerable reduction of egglaying”. For the same molecule, in data set [3], the “time to considerable increase in the motility of parasite couples” value is listed as “Two” and the “time to separation of parasite couples” value worked out at 18 h. In addition, the “change in tegument or death of parasites” value in data set [3] (14.0, 7.0 and 3.5 μg/ml) is listed as “no apparent change in tegument or death of parasites”. Also, the schistosomicidal activity entry with Schistosoma [2] is given as “significant schistosomicidal activity”.

On to `COC1OC[C@@H](Cc2ccc3c(c2)OCO3)[C@@H]1Cc1ccc2c(c1)OCO2` (single isomer, unassigned; (-)) [compound 6, (−)-O-methylcubebin], for which, in data set [3] (14, 7.5 and 3.5 μg/ml), the “increase in motility of couples” value was “increased the motility of couples after the first hour of culture” and the “time to separation of the parasites” value is at most 12 h. Further, in the data set on S. mansoni [1], the “reduction of the viable worms” value is “approximately 90%”, the efficacy entry is on record as “around 93%”, the “number of S. mansoni recovered” value is on record as “about 10%” and the “couples of S. mansoni recovered in the treated group” value is recorded as “five”. In addition, in the data set with Schistosoma [2], the schistosomicidal activity entry is reported as “significant schistosomicidal activity”. Besides, the “tegument (cutaneous) lesions in male and female parasites” value in data set [4] is given as “did not produce cutaneous lesions”. Besides, the “reduction of the viable worms” value with S. mansoni [5] (two doses 10 mg/kg of weight) is given as “approximately 90%”. Also, the “action on intermediary forms of the parasite (schistosomulus) in the vertebrate host” value with S. mansoni [5] (two doses 10 mg/kg) is reported as “also acts on the intermediary forms of the parasite (schistosomulus)”.

On to `c1ccc(COC2OC[C@@H](Cc3ccc4c(c3)OCO4)[C@@H]2Cc2ccc3c(c2)OCO3)cc1` (single isomer, unassigned; (-)) [compound 7, (−)-O-benzylcubebin], for which the schistosomicidal activity result in the data set with Schistosoma [2] is reported as “significant schistosomicidal activity”.

On to `Nc1cc2c(cc1CC1COC(=O)C1Cc1cc3c(cc1N)OCO3)OCO2` (single isomer, unassigned; (-)) [compound 9, (−)-6,6′-diaminonokinin], for which, in the data set on Schistosoma [2], the schistosomicidal activity entry is given as “significant schistosomicidal activity”.

For `COc1ccc([C@H]2O[C@@H](c3ccc(OC)c(OC)c3)[C@H](C)[C@@H]2C)cc1OC` [14b, galgravin], in the data set on Schistosoma [2], the schistosomicidal activity entry was “significant schistosomicidal activity”.

As for `COc1cc([C@H]2O[C@@H](c3ccc(OC)c(OC)c3)[C@H](C)[C@@H]2C)ccc1O` [14c, nectandrin A], the schistosomicidal activity result in the data set with Schistosoma [2] was “significant schistosomicidal activity”.

On to `COc1cc([C@H]2O[C@@H](c3ccc(O)c(OC)c3)[C@H](C)[C@@H]2C)ccc1O` [14d, nectandrin B], for which the schistosomicidal activity entry with Schistosoma [2] is “significant schistosomicidal activity”.

As for `COc1ccc([C@H]2O[C@@H](c3ccc(OC)c(OC)c3)[C@H](C)[C@H]2C)cc1OC` [15b, veragensin], the schistosomicidal activity result in the data set with Schistosoma [2] is “significant schistosomicidal activity”.

`COc1ccc([C@H]2O[C@H](c3ccc(OC)c(OC)c3)[C@@H](C)[C@H]2C)cc1OC` [16a, ganschisandrin]: the schistosomicidal activity entry in the data set on Schistosoma [2] is “significant schistosomicidal activity”.

Consider `CC(C)NCC1CCc2cc(CO)c([N+](=O)[O-])cc2N1` (stereo not shown) [Oxamniquin, oxamniquin], for which the entries for the “cases in which the drug is effective” value with Schistosoma [6] (adults) and in the data set on Schistosoma [6] (children) were “about 80%” and about 65%, respectively. Further, in the data set with Schistosoma [6] (patients), the side effects entry is “cephalgia, sleepiness, nausea, tremors and rarely convulsions”.

`COc1ccc(C[C@H]2C(=O)OC[C@@H]2Cc2ccc3c(c2)OCO3)cc1OC` [compound 1, (−)-methylpluviatolide]: the schistosomicidal activity entry in the data set on Schistosoma [2] was “significant schistosomicidal activity”.

With `O[C@H]1OC[C@H](Cc2ccc3c(c2)OCO3)[C@H]1Cc1ccc2c(c1)OCO2` [compound 2, (−)-cubebin], the schistosomicidal activity entry in the data set on Schistosoma [2] is “significant schistosomicidal activity”.

Regarding `O=C1OC[C@H](Cc2ccc3c(c2)OCO3)[C@H]1Cc1ccc2c(c1)OCO2` [compound 3, (−)-hinokinin], in data set [3] (3.5 μg/ml), the “time to increase in the motility of couples” value came out at 24 h and the “time to separation of the couples” value came out at 36 h. In data set [3] (setting [7]), the effect on egglaying result is reported as “considerable reduction of egglaying”. In addition, in data set [3], the “time to considerable increase in the motility of parasite couples” value is “Two” and the “time to separation of parasite couples” value worked out at 18 h. Moreover, in data set [3] (14.0, 7.0 and 3.5 μg/ml), the “change in tegument or death of parasites” value is “no apparent change in tegument or death of parasites”. The schistosomicidal activity entry in the data set on Schistosoma [2] is on record as “significant schistosomicidal activity”.

Consider `O=C1OC[C@H](Cc2cc3c(cc2[N+](=O)[O-])OCO3)[C@H]1Cc1cc2c(cc1[N+](=O)[O-])OCO2` [compound 8, (−)-6,6′-dinitroinokinin], for which the “time to death of parasites” value in data set [3] (3.5 μg/ml) came to 36 h; in data set [3] (7.0 μg/ml) it was 24 h; in data set [3] (14.0 μg/ml) it was 20 h. Besides, the “death of the parasites” value in data set [3] (14.0, 7.0 and 3.5 μg/ml) is listed as “causing their death”. For the same molecule, in data set [3] (14, 7.5 and 3.5 μg/ml), the “increase in motility of couples” value was “considerable increase in motility in the first hour of culture”. Further, the “time to separation of the parasites” value in data set [3] (14, 7.5 and 3.5 μg/ml) stood at 12 h. Besides, the effect on egglaying entry in data set [3] (14, 7.5 and 3.5 μg/ml, after separation) is “interruption in egglaying”. Further, the “reduction of the viable worms” value with S. mansoni [1] was “approximately 90%”. Besides, the efficacy result with S. mansoni [1] is on record as “around 90%”. The schistosomicidal activity entry in the data set on Schistosoma [2] is given as “significant schistosomicidal activity”. Besides, the “tegument (cutaneous) lesions in male and female parasites” value in data set [4] was “strong tegument lesions in both male and female parasites; also recorded: very evident tegument lesions”.

On to `COc1cc(OC)c([C@H]2[C@H](C)[C@@H](c3cc(OC)c(OC)cc3OC)O[C@H]2C)cc1OC` [compound 17, magnosalicin], for which the schistosomicidal activity result in the data set on Schistosoma [2] was “significant schistosomicidal activity”.

Regarding aristolignine [15c], the schistosomicidal activity entry with Schistosoma [2] is given as “significant schistosomicidal activity”.

Turning to caloptin [15a], the schistosomicidal activity result with Schistosoma [2] is “significant schistosomicidal activity”.

As for machilin [14a], the schistosomicidal activity entry in the data set on Schistosoma [2] is listed as “significant schistosomicidal activity”.

As to morelensine [1a], the schistosomicidal activity result with Schistosoma [2] is “significant schistosomicidal activity”.

For nectandrin D [16b], in the data set with Schistosoma [2], the schistosomicidal activity result is “significant schistosomicidal activity”.

For the molecule nectandrin E [16c], the schistosomicidal activity entry in the data set on Schistosoma [2] is reported as “significant schistosomicidal activity”.

The values are drawn from patent publication US20080194678A1, “Process To Obtain Synthetic And Semi-Synthetic Lignan Derivatives, Their Antiparasitic Activities And Corresponding Pharmaceutical Formulations, Including The Therapeutic Method Using Said Lignan For The Treatment Of Parasitosis” (Fundacao de Amparo a Pesquissa do Estado de Aao Pa, priority 2005, published 2008).
